# Legend:
# [1] = test system: matrix metalloproteinase-2; assay: Gelatin gel zymography of PMA-induced HT 1080 cells, MMP-2 activity; assay type: cell-based, Human
# Experimental: 4. Gelatin Gel Zymography (Shim et al., 2003; Park et al., 2005; Hwang et al., 2006)
# (§1) HT 1080 cells with appropriate cell numbers were cultured in 60 mm culturing plates for 12 hours, respectively. After the cells were attached onto the bottom of the plate and formed a monolayer, the medium in the plate was removed. Fresh serum free mediums with different concentrations of a test sample were added to the plates, respectively, and 100 nM PMA was added to each plate to induce the cells to express great quantities of matrix metalloproteinase-2 and matrix metalloproteinase-9, and the plates were placed in a temperature of 37° C. for 24 hours. After centrifugation, each cultured supernatant were saved and mixed with SDS-sample buffer under the same protein contents which were then injected into a 10% SDS-polyacrylamide gel (containing 1 mg/ml gelatin) and then electrophoresed. After the electrophoresis was completed, the gel was taken out and washed with 20 mM Tris-HCl containing 25% isopropanol three times; 10 minutes per time. Then the gel was equilibrated with 20 mM Tris-HCl for 30 minutes, and finally an incubate buffer (5 mM CaCl2 and 1 mM ZnCl2) was added to the gel and reacted with the gel overnight. Then the gel was stained with coomassie blue, and positions having matrix metalloproteinase activity of the gel presented a white color.
# [2] = target: T1, matrix metalloproteinase-9 (Homo sapiens, UniProt P14780); assay: Extracellular inhibition test on enzyme activity of secreted MMP-9 in cultured medium; assay type: biochemical; conditions: cultured medium of PMA induced HT 1080, different concentrations, 24 hours
# T1 construct: matrix metalloproteinase-2 and matrix metalloproteinase-9 were secreted from the PMA induced HT 1080; endogenous in cells; host or cells: HT 1080 cells induced with 100 nM PMA
# T1 sequence (P14780 94-707): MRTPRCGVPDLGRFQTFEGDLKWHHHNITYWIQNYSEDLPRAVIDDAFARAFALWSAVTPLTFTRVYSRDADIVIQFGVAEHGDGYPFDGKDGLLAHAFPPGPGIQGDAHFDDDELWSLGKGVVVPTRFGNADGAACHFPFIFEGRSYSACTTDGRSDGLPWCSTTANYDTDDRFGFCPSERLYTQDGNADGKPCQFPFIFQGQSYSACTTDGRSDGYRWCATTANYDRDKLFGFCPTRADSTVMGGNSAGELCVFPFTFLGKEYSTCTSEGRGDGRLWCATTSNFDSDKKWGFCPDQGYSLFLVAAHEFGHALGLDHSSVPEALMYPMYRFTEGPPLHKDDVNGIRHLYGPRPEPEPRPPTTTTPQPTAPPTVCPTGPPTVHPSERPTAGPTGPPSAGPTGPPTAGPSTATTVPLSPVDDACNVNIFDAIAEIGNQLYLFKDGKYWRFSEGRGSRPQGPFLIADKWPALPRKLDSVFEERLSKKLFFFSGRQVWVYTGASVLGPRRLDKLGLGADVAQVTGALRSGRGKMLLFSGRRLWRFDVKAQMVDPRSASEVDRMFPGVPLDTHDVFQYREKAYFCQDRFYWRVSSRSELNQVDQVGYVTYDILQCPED
# Experimental: as §1, with “Then the gel was equilibrated with 20 mM Tris-HCl for 30 minutes, and finally an incubate buffer (5 mM CaCl2 and 1 mM ZnCl2) was added to the gel and reacted with the gel overnight. Then the gel was stained with coomassie blue, and positions having matrix metalloproteinase activity of the gel presented a white color.” left out
# HT 1080 cells were induced with PMA, and the cultured medium for culturing the HT 1080 cells therefrom was taken out and treated with the different concentrations of L-Glutamic acid γ-hydroxamate (DH) for 24 hours, respectively. After that the enzyme activities of the matrix metalloproteinase-2 and matrix metalloproteinase-9 in the medium were analyzed. […]
# [3] = test system: matrix metalloproteinase-9; assay: Western blot analysis, MMP-9 protein expression in HT 1080 cells; assay type: cell-based, Human
# Experimental: HT 1080 cells with appropriate cell numbers were cultured in 60 mm culturing plates for 12 hours, respectively. After the cells were attached onto the bottom of the plate and formed a monolayer, the medium in the plate was removed. Fresh serum-free mediums with different concentrations of a test drug were added to the plates, respectively, and 100 nM PMA was added to each plate to induce the cells to express great quantities of matrix metalloproteinase-2 and matrix metalloproteinase-9, and the plates were placed in a temperature of 37° C. for 24 hours. A quantitatively cultured supernatant in each plate was centrifuged or protein was extracted from cells in each plate to be quantitated, and then an SDS-sample buffer containing 2-ME was added therein to form a mixture. The mixture was injected into a 10% SDS-polyacrylamide gel […] and then electrophoresed. After electrophoresis was completed, the proteins in the gel were transferred to a PVDF membrane. The PVDF membrane was equilibrated with gelatin-NET at room temperature for 30 minutes. […]
# [4] = test system: HT 1080 cells; assay: Wound healing assay and colony dispersion assay (cell migration); assay type: cell-based, Human
# Experimental: 8. Wound Healing Assay (Park et al., 2005; Hwang et al., 2006)
# Cells with appropriate cell numbers were cultured in a 24 well culturing plate for 12 hours. After the cells were attached to each bottom of each well of the plate and formed a monolayer, the medium in the well was removed. The middle of each bottom of each well having the monolayer thereon was scraped by a 200 μl tip to form a scratched line with a width of 1 mm. The cells in each well were washed with a PBS buffer twice, and fresh mediums with different concentrations of a test drug were added to the wells, respectively and cultured for 18 hours. After that, the upper medium in each well was removed. The cells were washed with a PBS buffer twice, fixed with 100% methanol and stained with a toluidine blue. The calculation for the migration rate of the cells was:
# 9. Colony Dispersion Assay (Hwang et al., 2006)
# Cells with appropriate cell numbers were cultured in a 24 well culturing plate for 12 hours. After the cells were attached to each bottom of each well of the plate and formed a monolayer, the medium in the well was removed. Fresh mediums with different concentrations of a test drug were added to the wells, respectively and cultured for 3 days. After that, the upper medium in each well was removed. Then, the cells were washed with a PBS buffer twice, fixed with 100% methanol and stained with a toluidine blue.
# [5] = test system: B16-F10 cell line; assay: Tumor metastasis in an animal model (lung metastasis induced by B16-F10); assay type: in vivo, C57BL/6 mice; conditions: mice, 50 mg/kg/day, 21 days
# Experimental: 12. Tumor Metastasis in an Animal Model (Itoh et al., 2005; Lee et al., 2005; Ouyang et al., 2005; Zhang et al., 2005)
# Experimental animal: C57BL/6, gray-brown fur
# C57BL/6 mice were injected with 2×10^5 cells/0.1 ml of a B16-F10 cell line by a tail intravenous injection. Then, on the next day the mice were injected with a physiological saline solution or 50 mg/kg drug, daily, for 3 weeks. The mice were sacrificed and their lungs were removed at the third week. The lungs were washed with a PBS buffer and fixed with Bouin's solution.
structure (smiles),measurement,setting,value
"NC(CCC(=O)NO)C(=O)O [DH, L-Glutamic acid γ-hydroxamate]",protein activity of matrix metalloproteinase-2 secreted out of and left in HT 1080 cells,"[1]; 0.4, 0.8, 1.2, and 1.6, 24 hours",also decreased
same,inhibition rate to the activity of matrix metalloproteinase-2,[1]; HT 1080 cells treated 24 hours,greater than 50%
same,matrix metalloproteinase-2 inhibiting activity,"[1]; HT 1080 cells, 0.4, 0.8, 1.2 and 1.6 mM, 24 hours",increased while the concentration thereof was increased
same,inhibition rate to the protein activity of metalloproteinase-2 of a cancer cell,"[1]; about 0.1-2 mM, stated as embodiment, 'and/or' MMP-9",40-70%
same,direct inhibition of enzyme activity of secreted matrix metalloproteinase-9,[2],no inhibition
same,protein expression amount of matrix metalloproteinase-9 secreted out of and left in HT 1080 cells,"[3]; 0.4, 0.8, 1.2, and 1.6, 24 hours, Western blotting",all decreased
same,inhibition rate to the protein expression amount of matrix metalloproteinase-9 of a cancer cell,"[3]; about 0.1-2 mM, stated as embodiment, 'and/or' MMP-2",40-90%
same,IC50,"[4]; Homo sapiens, HT-1080, 0.4, 1.2, 2 and 2.8 mM, 18 hours",1750 µM
same,inhibition rate to cancer cell migration,"[4]; about 0.1-3 mM, stated as embodiment",20-85%
same,lung metastasis and amount of metastasized pulmonary nodules,[5],significantly decreased
same,lung weight,[5],recovered to a level similar to that of the control group
same,"pathological symptoms (fur picking, weight loss, hind limb debility) due to cancer metastasis, compared to blank group",[5],decreased
same,survival till the end of the experiment,[5]; blank group 2 of 6 survived,six mice all survived

# Reference: patent US20120101163A1, “COMPOSITION FOR INHIBITING CANCER METASTASIS” (TAIPEI MEDICAL UNIVERSITY, priority 2010, published 2012)
